Assay results: PubChem BioAssay AID463203 (Broad Institute, 2010)
Active and inactive are the calls of the source.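 How the source made its calls: active means more than half of replicate measurements showing over 20% loss of kinase signal relative to plate controls; inconclusive means some but at most half of replicates over 20% loss; inactive means no replicate over 20% signal loss.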

Target: Glycogen synthase kinase-3 alpha (Homo sapiens) (UniProt P49840)
Assay: concentration-response blocking of human GSK3A – biochemical, luminescence, cell-free homogeneous, retest, dose response (AID 463203)
Details: GSK-3 alpha enzyme, ADP-Glo luminescence, 60 min

Glycogen synthase kinase-3 alpha (Homo sapiens), sequence (P49840 whole entry, looked up): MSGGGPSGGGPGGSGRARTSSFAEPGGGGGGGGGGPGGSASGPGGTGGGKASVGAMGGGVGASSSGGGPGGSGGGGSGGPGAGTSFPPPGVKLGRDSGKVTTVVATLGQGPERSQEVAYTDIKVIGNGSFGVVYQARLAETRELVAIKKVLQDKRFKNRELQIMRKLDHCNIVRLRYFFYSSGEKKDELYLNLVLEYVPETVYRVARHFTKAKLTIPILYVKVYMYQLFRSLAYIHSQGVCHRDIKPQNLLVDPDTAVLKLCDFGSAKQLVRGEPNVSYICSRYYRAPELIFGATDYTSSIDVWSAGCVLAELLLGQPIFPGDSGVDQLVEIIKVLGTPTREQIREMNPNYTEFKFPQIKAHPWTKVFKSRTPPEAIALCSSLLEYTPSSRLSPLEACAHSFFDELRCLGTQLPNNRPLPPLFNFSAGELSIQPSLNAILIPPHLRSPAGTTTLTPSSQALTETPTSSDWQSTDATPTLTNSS

SMILES | AC50
COc1ccc(C(=O)Nc2nncs2)cc1S(=O)(=O)N1CC(c2ccccc2)CC1=O (stereo not drawn) | > 30 µM (inactive)
Cc1nc2cc(-c3ccccc3)ccc2o1 | > 30 µM (inactive)
COc1ccc(CC(=O)N2CCOCC2)cc1 | > 30 µM (inactive)
c1ccc2[nH]c(-c3ccncc3)nc2c1 | > 30 µM (inactive)
Nc1nonc1-n1nnc(C(=O)N/N=C/c2ccco2)c1-c1ccccc1 | 18.5 µM
Nc1ncnc2c1ncn2[C@H]1C[C@H](O)[C@@H](CO)O1 | > 30 µM (inactive)
COc1ccc(C(=O)NCC(=O)N/N=C/C=C/c2ccccc2)cc1OC | > 30 µM (inactive)
COc1ccc(-c2cc(C(=O)N3CCN(c4ccccc4)CC3)no2)cc1OC | > 30 µM (inactive)
CCc1cc2c(N3CCN(c4nnc(CC)s4)CC3)ncnc2s1 | 16 µM
COc1ccc(-c2cc(C(F)(F)F)nc(SCC(=O)NCc3cccs3)n2)cc1OC | > 30 µM (inactive)
CC1(C)Cc2c(sc3ncn(N)c(=N)c23)CO1 | > 30 µM (inactive)
COCCNc1nnc(SCC(=O)NC2CCCCC2)s1 | > 30 µM (inactive)
CCCCC(=O)Nc1nn(CC)c2nc3c(C)cccc3cc12 | > 30 µM (inactive)
CCOC(=O)C1=C(c2ccccc2)Nc2ncnn2C1c1cccc(OC)c1OC (stereo not drawn) | 9 µM
COc1ccc2nc(NC(=O)CSc3nc4ccccc4o3)sc2c1 | 28.8 µM
CCOC(=O)c1cnn(Cc2ccccc2Cl)c1N | > 30 µM (inactive)
CNC(=O)c1ccsc1NC(=O)C1CCCN1S(=O)(=O)c1cccs1 (stereo not drawn) | 17.2 µM
O=C(c1ccc(Cl)cc1)c1cnc(Nc2ccccc2Cl)s1 | > 30 µM (inactive)
Cc1c2c(n3c(nc4ccccc43)c1C#N)N(CCN(C)C)CC2 | 21.7 µM
CC(C)(C)C(=O)NC(=S)Nc1sc2c(c1C(N)=O)CCC2 | > 30 µM (inactive)
Cc1ccccc1CSc1nnc(-c2ccncc2)n1C | > 30 µM (inactive)
COc1ccc(COC(=O)C2=C(C)NC(=O)NC2c2ccc(F)cc2)cc1 (stereo not drawn) | > 30 µM (inactive)
CC(=O)Nc1ccc(NC(=O)CSc2nc3[nH]ncc3c(=O)n2-c2ccccc2)cc1 | > 30 µM (inactive)
CCCCCCN=C(CC)c1c(O)n(CCCC)c(=O)[nH]c1=O | > 30 µM (inactive)
CC(=O)c1sc(NC(=O)c2ccc3c(c2)OCO3)nc1C | > 30 µM (inactive)
COc1cc2sc(C)nc2c2ccccc12 | > 30 µM (inactive)

SMILES | AC50
S=C(Nc1cccnc1)Nc1ccccn1 | > 30 µM (inactive)
COc1ccc(C2=Nn3c(nnc3-c3cccnc3)SC2)cc1OC | > 30 µM (inactive)
C#CCOCCOCCOCCNc1nc(N2CCN(C(=O)CCCCCCCCCCNC(=O)[C@H](CCCCN)n3cc(C)nn3)CC2)nc(N2CCN(C(=O)CCCCCCCCCCNC(=O)[C@H](CCCN=C(N)N)n3cc(C[C@@H](C)CC)nn3)CC2)n1 | > 30 µM (inactive)
COc1ccccc1OCC(=O)Nc1sc2c(c1C(N)=O)CCC2 | > 30 µM (inactive)
Cc1cccc(C(=O)Nc2cccc(C(=O)N/N=C/c3ccccn3)c2)c1 | 23.3 µM
CCOC(=O)c1cnc2c(Cl)c(Cl)ccc2c1N1CCN(C)CC1 | > 30 µM (inactive)
Cn1cnnc1SCC(=O)Nc1ncc([N+](=O)[O-])s1 | > 30 µM (inactive)
COc1ccc(OC)c(NC(=O)c2nnn(Cc3ccc(Br)cc3F)c2N)c1 | > 30 µM (inactive)
COc1cc2c(C#N)c(N3CCCC3)nc(N)c2c(N)n1 | > 30 µM (inactive)
COc1ccc(/C=C/c2nc(N)nc(-c3ccccc3O)n2)cc1OC | > 30 µM (inactive)
CS(=O)(=O)Nc1ccc(-c2ccc(/C=C3\SC(N)=NC3=O)o2)cc1 | 1.02 µM
COc1ccc(/C=C2\Oc3cc(OCC(=O)N4CC(O)C[C@H]4C(=O)O)ccc3C2=O)c(OC)c1OC (stereo partly drawn) | > 30 µM (inactive)
CCCCCCCCCCOC(=O)Cn1c(COc2ccc(Cl)cc2)[n+](C)c2ccccc21 | > 30 µM (inactive)
COc1ccc(NC(=O)CNc2cccc(S(=O)(=O)N3CCCCCC3)c2)c([N+](=O)[O-])c1 | > 30 µM (inactive)
Cc1ccc(C(=O)N2NC(c3ccccc3F)C3C(=O)N(c4cccc(C)c4)C(=O)C32)cc1 (stereo not drawn) | > 30 µM (inactive)
O=C1NC(=Nc2ccccc2Cl)S/C1=C\c1cccc([N+](=O)[O-])c1 | > 30 µM (inactive)
Cc1ccc(-c2nnc(CSc3nnc(C)s3)o2)cc1 | > 30 µM (inactive)
O=C(CSc1nnc(-c2ccc(O)cc2)o1)Nc1ccc2c(c1)OCCO2 | 0.463 µM
COC(=O)c1nnn(-c2ccccc2)c1N | > 30 µM (inactive)
CCOc1cc(/C=C2\N=C3CCCCCN3C2=O)ccc1O | 19.3 µM
COc1ccccc1CC(=O)N1CCOCC1 | > 30 µM (inactive)
Cc1cc(NC(=O)CCSc2nc(-c3ccco3)cc(C(F)(F)F)n2)n(-c2ccccc2)n1 | > 30 µM (inactive)
CN(C)S(=O)(=O)c1cccc(NC(=S)NN=C(Cc2ccccc2)Cc2ccccc2)c1 | > 30 µM (inactive)
COc1ccc(C2CC(=O)Nc3n[nH]c(-c4ccccc4)c32)cc1OC (stereo not drawn) | 26.9 µM
CC(=NCCCn1ccnc1)c1c(O)n(C)c(=O)n(C)c1=O | > 30 µM (inactive)
CC(C)CSc1ncnc2c1oc1nc3c(cc12)COC(C)(C)C3 | > 30 µM (inactive)

SMILES | AC50
CCOc1cccc2sc(=NC(=O)c3ccco3)n(CC(=O)OC)c12 | 7.61 µM
COc1cccc(/C=N/NC(=O)c2nnn(-c3nonc3N)c2-c2cccs2)c1 | 0.899 µM
CCC(Sc1ccc2nnc(-c3ccc(OC)c(OC)c3)n2n1)C(=O)O (stereo not drawn) | 29.2 µM
NS(=O)(=O)c1ccc(Nc2nc(-c3ccc(F)cc3)cs2)cc1 | 26.2 µM
COc1cc2c(ccc3cc(OC)c(OC)c(O)c32)cc1O | 20.8 µM
COCCCNc1nc2ccccc2[nH]c1=O | > 30 µM (inactive)
COCCNC(=O)Cn1cnc([N+](=O)[O-])n1 | > 30 µM (inactive)
CC(C)CNc1cc(N2CCCC2)ccc1[N+](=O)[O-] | > 30 µM (inactive)
COc1ccc(-c2cc(=O)c3ccccc3s2)cc1 | > 30 µM (inactive)
CN(C(=O)CN1CC=C(c2ccccc2)CC1)c1c(N)n(Cc2ccccc2)c(=O)[nH]c1=O | > 30 µM (inactive)
O=C(CSc1ccc2nnc(-c3ccccn3)n2n1)N1CCOCC1 | > 30 µM (inactive)
O=C1c2cnc3ncnn3c2CC2c3ccccc3CCN12 (stereo not drawn) | > 30 µM (inactive)
CCOC(=O)c1sc(NC(=O)CSc2ncn[nH]2)c(C#N)c1C | > 30 µM (inactive)
Cc1sc2ncnc(NCCN3CCOCC3)c2c1C | > 30 µM (inactive)
Cc1[nH]nc2c1C(c1ccsc1)C1=C(CC(C)(C)CC1=O)N2 (stereo not drawn) | 1.06 µM
CC(/C=N/NC(=O)c1nnn(-c2nonc2N)c1C(C)C)=C\c1ccco1 | > 30 µM (inactive)
Cc1ccc(C)c(/C=N/Nc2ccccn2)c1 | > 30 µM (inactive)
Cc1n[nH]c(=S)n1/N=C/c1ccc(-c2ccccc2[N+](=O)[O-])o1 | 24.9 µM
O=C(c1ccco1)c1cn(CC(=O)N2CCCC2)c2ccccc12 | > 30 µM (inactive)
COc1cc(O)c(NC(C)=O)c2nonc12 | > 30 µM (inactive)
CCN1CCN(Cc2cc(OC)c(OC)cc2[N+](=O)[O-])CC1 | > 30 µM (inactive)
CCn1c(C)nc2cc(-c3nc4n(n3)Cc3ccccc3-4)ccc21 | 16.1 µM
CCOC(=O)c1cc(CC)sc1NC(=O)CN1CCN(C(=O)c2ccco2)CC1 | > 30 µM (inactive)
CSc1nc2n(n1)C(c1ccccn1)C1=C(CC(C)(C)CC1=O)N2 (stereo not drawn) | > 30 µM (inactive)
O=C(N/N=C/c1ccc(O)c(O)c1)NC12CC3CC(CC(C3)C1)C2 | > 30 µM (inactive)
O=C(C[n+]1ccccc1)c1ccc(Cl)cc1 | > 30 µM (inactive)

SMILES | AC50
CCCCOc1ccc(-c2nnc(N)s2)cc1 | > 30 µM (inactive)
CCOC(=O)C1=C(C)NC(C)=C(C(=O)OCC)C1c1sccc1C | > 30 µM (inactive)
COC(=O)c1c(NC(=O)CN2C(=O)NC3(CCCCC3C)C2=O)sc2c1CCC2 (stereo not drawn) | > 30 µM (inactive)
O=c1cc(-c2ccccc2Cl)oc2c(NS(=O)(=O)c3cc(Cl)cc(Cl)c3O)ccc(O)c12 | > 30 µM (inactive)
Cc1nc(NCC2CCCO2)nc2c1C(=O)CC(C)C2 (stereo not drawn) | > 30 µM (inactive)
COc1ccc(/C=N/NC(=O)c2nnn(-c3nonc3N)c2-c2cccs2)cc1OC | 1.41 µM
O=c1[nH]c(=O)n(C2CCCCCC2)c(O)c1C=NC1CCN(Cc2ccccc2)CC1 | 9.67 µM
Cc1cc(N/N=C/c2ccccc2Br)nc2ccccc12 | > 30 µM (inactive)
O=c1[nH]c(=S)n(C2CC2)c(O)c1C=NCc1cccnc1 | 28.2 µM
CCOc1cc(-c2nc3c(C)cccn3c2NCC2CCCO2)ccc1O (stereo not drawn) | > 30 µM (inactive)
CN(C)c1ncnc2c1ncn2C1OC(CO)C(O)C1O (stereo not drawn) | > 30 µM (inactive)
CCOc1cccc(-c2c(C(=O)N/N=C(\C)c3ccccn3)nnn2-c2nonc2N)c1 | 2.56 µM
COC(=O)[C@@H]1[C@H](CCc2ccccc2)NC(=O)N(Cc2ccccc2)[C@@H]1C | > 30 µM (inactive)
Cc1nc(Nc2ccc(F)cc2)nc(Nc2ccc(F)cc2)c1[N+](=O)[O-] | > 30 µM (inactive)
Cc1ccc(C2CC(=O)N3CN(Cc4ccco4)CSC3=C2C#N)cc1 (stereo not drawn) | > 30 µM (inactive)
COC(=O)c1c(NC(=O)Cc2cccs2)sc2c1CCCC2 | > 30 µM (inactive)
COc1ccc2nc(C)cc(N3CCN(S(=O)(=O)c4ccccc4F)CC3)c2c1 | 8.27 µM
COc1ccccc1N=c1oc2cc(O)ccc2cc1C(=O)NCC1CCCO1 (stereo not drawn) | > 30 µM (inactive)
COc1ccc(S(=O)(=O)Nc2ccc(S(=O)(=O)Nc3nc(C)cc(C)n3)cc2)cc1OC | > 30 µM (inactive)
COc1ccc(Br)cc1C1CC(=O)N2CN(Cc3ccccc3)CSC2=C1C#N (stereo not drawn) | > 30 µM (inactive)
C=CCn1c(O)c(/C(C)=N/N2CCCCCC2)c(=O)[nH]c1=O | 28.8 µM
CN(C)C=NC(=O)/C(C#N)=C/c1ccccc1 | > 30 µM (inactive)
Cc1nc(SCC(=O)N(CC(C)C)C2CCS(=O)(=O)C2)c2ccccc2n1 (stereo not drawn) | > 30 µM (inactive)
CC(Oc1ccc(Br)cc1)C(=O)N1CCC(C(N)=O)CC1 (stereo not drawn) | > 30 µM (inactive)
COCCNc1nc(C)cc(-c2cc(C(=O)NC3CCCC3)on2)n1 | > 30 µM (inactive)
